Test results reported in ChEMBL document CHEMBL4049409, “Structure-based discovery of LpxC inhibitors” (Bioorg Med Chem Lett, 2017).
Values after ≈ are worked out from the molar mass of the structure shown.

Assays:
[1] = molecular target: T1, UDP-3-O-acyl-N-acetylglucosamine deacetylase (Escherichia coli K-12, UniProt P0A725); test: Inhibition of LpxC in Escherichia coli isolate 35 ATCC 25922; design: species or system Escherichia coli ATCC 25922
T1 sequence (P0A725 whole entry): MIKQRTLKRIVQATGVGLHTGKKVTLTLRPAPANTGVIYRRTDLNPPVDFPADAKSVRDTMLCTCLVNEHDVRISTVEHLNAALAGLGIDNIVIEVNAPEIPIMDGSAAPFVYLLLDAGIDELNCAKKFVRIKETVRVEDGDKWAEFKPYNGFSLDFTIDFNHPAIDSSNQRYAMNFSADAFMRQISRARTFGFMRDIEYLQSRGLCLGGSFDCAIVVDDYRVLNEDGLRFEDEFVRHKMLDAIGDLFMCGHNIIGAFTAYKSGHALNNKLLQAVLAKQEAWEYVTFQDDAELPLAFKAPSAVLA

Escherichia coli = test: Antibacterial activity against Escherichia coli isolate 35 ATCC 25922; format: functional
[2] = molecular target: T2, UDP-3-O-acyl-N-acetylglucosamine deacetylase (Pseudomonas aeruginosa (strain ATCC 15692 / PAO1 / 1C / PRS 101 / LMG12228), UniProt P47205); test: Inhibition of LpxC in Pseudomonas aeruginosa isolate 44 ATCC 27853
T2 sequence (P47205 whole entry): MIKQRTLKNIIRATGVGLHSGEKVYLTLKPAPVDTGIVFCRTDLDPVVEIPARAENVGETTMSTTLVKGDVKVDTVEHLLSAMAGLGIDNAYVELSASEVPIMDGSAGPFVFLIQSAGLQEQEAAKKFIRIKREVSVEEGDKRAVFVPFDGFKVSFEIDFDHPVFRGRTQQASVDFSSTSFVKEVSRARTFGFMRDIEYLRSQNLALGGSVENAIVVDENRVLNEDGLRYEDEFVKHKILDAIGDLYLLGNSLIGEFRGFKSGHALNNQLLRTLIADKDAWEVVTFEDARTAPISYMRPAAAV

Pseudomonas aeruginosa [3] = test: Antibacterial activity against Pseudomonas aeruginosa isolate 44 ATCC 27853; format: functional
Pseudomonas aeruginosa [4] = test: Antibacterial activity against Pseudomonas aeruginosa isolate 847; format: functional
[5] = molecular target: T2, UDP-3-O-acyl-N-acetylglucosamine deacetylase; test: Inhibition of LpxC in Pseudomonas aeruginosa isolate 847
Pseudomonas aeruginosa [6] = test: Antibacterial activity against Pseudomonas aeruginosa isolate 839 harboring mexAB-oprM deletion mutant; format: functional
[7] = Inhibition of LpxC in Klebsiella pneumoniae isolate 21 ATCC 4352
Klebsiella pneumoniae = test: Antibacterial activity against Klebsiella pneumoniae isolate 21 ATCC 4352; format: functional
[8] = Inhibition of LpxC in Acinetobacter baumannii focus ID 961025
Acinetobacter baumannii = test: Antibacterial activity against Acinetobacter baumannii focus ID 961025; format: functional

SMILES | IC50 [1] [nM] | MIC (Escherichia coli) [µg/mL] | IC50 [2] [nM] | MIC (Pseudomonas aeruginosa [3]) [µg/mL] | MIC (Pseudomonas aeruginosa [4]) [µg/mL] | IC50 [5] [nM] | MIC (Pseudomonas aeruginosa [6]) [µg/mL] | IC50 [7] [nM] | MIC (Klebsiella pneumoniae) [µg/mL] | IC50 [8] [nM] | MIC (Acinetobacter baumannii) [µg/mL]
CC(C)(N)[C@H](N[C@H]1CCc2cc(C#Cc3ccc(CN4CCOCC4)cc3)ccc21)C(=O)NO | 2 | 0.5 (≈ 1.08 µM) | 6 | 4 (≈ 8.65 µM) | 0.5 (≈ 1.08 µM) | 1 | 0.25 (≈ 0.54 µM) | – | – | – | –
CC(C)(N)[C@H](NC1COCc2cc(C#Cc3ccc(CN4CCOCC4)cc3)ccc21)C(=O)NO (some centres undefined) | 5 | 0.5 (≈ 1.04 µM) | 8 | 4 (≈ 8.36 µM) | 4 (≈ 8.36 µM) | – | 0.25 (≈ 0.522 µM) | – | – | – | –
COC1CCN(Cc2ccc(C#Cc3ccc4c(c3)CC[C@@H]4N[C@H](C(=O)NO)[C@@H](C)O)cc2)CC1 | 5 | 0.5 (≈ 1.05 µM) | 3 | 8 (≈ 16.8 µM) | – | – | 1 (≈ 2.09 µM) | 6 | 0.06 (≈ 0.126 µM) | – | –
C[C@@H](O)[C@H](N[C@H]1CCc2cc(C#Cc3ccc(CN4CCN(CCO)CC4)cc3)ccc21)C(=O)NO | 20 | 2 (≈ 4.06 µM) | 14 | 4 (≈ 8.12 µM) | – | – | 1 (≈ 2.03 µM) | 21 | < 0.125 | – | –
CC(C)(O)[C@H](N[C@H]1CCc2cc(C#Cc3ccc(CN4CCOCC4)cc3)ccc21)C(=O)NO | 1 | 0.25 (≈ 0.539 µM) | 3 | 32 (≈ 69 µM) | – | 0.4 | 0.25 (≈ 0.539 µM) | – | < 0.03 | – | –
CC(C)(N)[C@H](NC1COCc2cc(C#Cc3ccc(Cn4ccnc4CO)cc3)ccc21)C(=O)NO (some centres undefined) | 3 | 4 (≈ 8.17 µM) | 5 | 4 (≈ 8.17 µM) | 16 (≈ 32.7 µM) | – | 0.5 (≈ 1.02 µM) | – | – | – | –
C[C@@H](O)[C@H](N[C@H]1CCc2cc(C#Cc3ccc(CN4CCN(C)CC4)cc3)ccc21)C(=O)NO | 53 | 0.25 (≈ 0.54 µM) | 30 | 8 (≈ 17.3 µM) | – | – | 1 (≈ 2.16 µM) | 32 | 0.125 (≈ 0.27 µM) | – | –
C[C@@H](O)[C@H](N[C@H]1CCc2cc(C#Cc3ccc(CN4CC(O)C4)cc3)ccc21)C(=O)NO | 127 | 4 (≈ 9.18 µM) | 63 | 4 (≈ 9.18 µM) | – | – | 0.5 (≈ 1.15 µM) | – | 0.125 (≈ 0.287 µM) | – | –
C[C@@H](O)[C@H](N[C@H]1CCc2cc(C#Cc3ccc(Cn4ccnc4CCO)cc3)ccc21)C(=O)NO | 5 | 1 (≈ 2.11 µM) | 5 | 4 (≈ 8.43 µM) | 4 (≈ 8.43 µM) | – | 0.125 (≈ 0.263 µM) | 3 | – | – | –
C[C@@H](O)[C@H](N[C@H]1CCc2cc(C#Cc3ccc(CN4CC[C@@H](O)C4)cc3)ccc21)C(=O)NO | 51 | 2 (≈ 4.45 µM) | 26 | 8 (≈ 17.8 µM) | – | – | 1 (≈ 2.22 µM) | 38 | 0.5 (≈ 1.11 µM) | – | –
C[C@@H](O)[C@H](NC1CCOc2cc(C#Cc3ccc(CN4CCOCC4)cc3)ccc21)C(=O)NO (some centres undefined) | 1 | 2 (≈ 4.3 µM) | 6 | 16 (≈ 34.4 µM) | – | – | – | 2 | < 0.125 | 83 | 64 (≈ 137 µM)
C[C@@H](O)[C@H](NC1CCOc2cc(C#Cc3ccccc3)ccc21)C(=O)NO (some centres undefined) | 11 | 2 (≈ 5.46 µM) | 13 | 128 (≈ 349 µM) | – | – | – | 8 | < 0.125 | 36 | 32 (≈ 87.3 µM)
Cc1nccn1Cc1ccc(C#Cc2ccc3c(c2)CC[C@@H]3N[C@H](C(=O)NO)[C@@H](C)O)cc1 | 1 | 0.25 (≈ 0.562 µM) | 4 | 8 (≈ 18 µM) | – | – | 0.25 (≈ 0.562 µM) | 2 | 0.06 (≈ 0.135 µM) | – | –
CNCCOCc1ccc(C#Cc2ccc3c(c2)CC[C@@H]3N[C@H](C(=O)NO)[C@@H](C)O)cc1 | 15 | 4 (≈ 9.14 µM) | 6 | 16 (≈ 36.6 µM) | – | – | 2 (≈ 4.57 µM) | 11 | 0.25 (≈ 0.571 µM) | – | –
C[C@@H](O)[C@H](N[C@@H]1CCc2cc(C#Cc3ccc(CN4CCOCC4)cc3)ccc21)C(=O)NO | 3 | 0.5 (≈ 1.11 µM) | 8 | 128 (≈ 285 µM) | – | – | – | 7 | 0.125 (≈ 0.278 µM) | 1990 | 64 (≈ 142 µM)
C[C@@H](O)[C@H](NC1CCCc2cc(C#Cc3ccccc3)ccc21)C(=O)NO (some centres undefined) | 1 | 1 (≈ 2.74 µM) | 5 | 32 (≈ 87.8 µM) | – | – | – | 0.2 | 0.25 (≈ 0.686 µM) | 40 | 16 (≈ 43.9 µM)
CC(C)(O)[C@H](N[C@H]1CCc2cc(C#Cc3ccc(CN4CCN(CCO)CC4)cc3)ccc21)C(=O)NO | 41 | 4 (≈ 7.9 µM) | 14 | 4 (≈ 7.9 µM) | 32 (≈ 63.2 µM) | – | 0.5 (≈ 0.987 µM) | – | – | – | –
C[C@@H](O)[C@H](NC1CCCCc2cc(C#Cc3ccccc3)ccc21)C(=O)NO (some centres undefined) | 109 | 16 (≈ 42.3 µM) | 333 | > 128 | – | – | – | 72 | 2 (≈ 5.28 µM) | 1160 | > 128
C[C@@H](O)[C@H](N[C@H]1CCc2cc(C#Cc3ccc(Cn4ccnc4CO)cc3)ccc21)C(=O)NO | 6 | 1 (≈ 2.17 µM) | – | 4 (≈ 8.69 µM) | 4 (≈ 8.69 µM) | – | 0.5 (≈ 1.09 µM) | 4 | – | – | –
C[C@@H](O)[C@H](NC1CCN(C)c2cc(C#Cc3ccc(CN4CCOCC4)cc3)ccc21)C(=O)NO (some centres undefined) | 2 | 2 (≈ 4.18 µM) | 18 | > 32 | – | – | – | 2 | 0.125 (≈ 0.261 µM) | 331 | > 32
CCC(N[C@H](C(=O)NO)[C@@H](C)O)c1ccc(C#Cc2ccccc2)cc1 (some centres undefined) | 215 | 4 (≈ 11.3 µM) | 214 | > 64 | – | – | – | 120 | 2 (≈ 5.67 µM) | 566 | > 64
C[C@@H](O)[C@H](N[C@H]1CCc2cc(C#Cc3ccc(CN4CCCCC4)cc3)ccc21)C(=O)NO | 10 | 0.5 (≈ 1.12 µM) | 10 | 16 (≈ 35.7 µM) | – | – | 2 (≈ 4.47 µM) | 5 | 0.5 (≈ 1.12 µM) | – | –
C[C@@H](O)[C@H](NC1COCc2cc(C#Cc3ccccc3)ccc21)C(=O)NO (some centres undefined) | 2 | 0.25 (≈ 0.682 µM) | 14 | 64 (≈ 175 µM) | – | – | – | 1 | < 0.125 | 49 | 32 (≈ 87.3 µM)
